DBAASP
≈ marks a conversion by molar mass, not a printed value.

Key:
Experiment in all cases: ≥ marks a high value that may be exact or a test limit, other limits are often not marked, values filed in µg/mL are converted to µM
Escherichia coli JM109 = system: Escherichia coli JM109
Pseudomonas aeruginosa = system: Pseudomonas aeruginosa
[1] = system: Staphylococcus aureus ATCC 6538P
Staphylococcus aureus = system: Staphylococcus aureus
[2] = system: Escherichia coli ATCC 25922
[3] = system: Klebsiella pneumoniae ATCC 700603
[4] = system: Pseudomonas aeruginosa ATCC 27853
[5] = system: Staphylococcus aureus ATCC 29213
[6] = system: Staphylococcus aureus ATCC 33591
[7] = system: Staphylococcus aureus ATCC 700699
Acinetobacter baumannii = system: Acinetobacter baumannii
[8] = system: Candida albicans ATCC 90028
[9] = system: Escherichia coli ATCC 25726
[10] = system: Proteus mirabilis ATCC 25933
[11] = system: Staphylococcus aureus ATCC 25923
[12] = system: Staphylococcus epidermidis RP62A/1
[13] = system: Staphylococcus epidermidis RP62A
[14] = system: Stenotrophomonas maltophilia
[15] = system: Bacillus subtilis IFO 3513
[16] = system: Escherichia coli IFO 12734
[17] = system: Staphylococcus aureus IFO 12732
[18] = system: Bacillus cereus ATCC 14579
[19] = system: Escherichia coli ATCC 35218
[20] = system: Salmonella enterica subsp. enterica serovar Typhimurium ATCC 14028
[21] = system: Staphylococcus aureus ATCC 6538
[22] = system: Streptococcus mutans ATCC 25175
[23] = system: Escherichia coli DH5alpha
Staphylococcus xylosus = system: Staphylococcus xylosus
[24] = system: Candida albicans ATCC 64550
[25] = system: Staphylococcus epidermidis ATCC 12228
[26] = system: Micrococcus luteus ATCC 9341

## CC[C@H](C)[C@H](NC(=O)[C@H](C)NC(=O)[C@H](CC(C)C)NC(=O)[C@H](CCCN=C(N)N)NC(=O)[C@H](CC(C)C)NC(=O)[C@H](C)N)C(=O)N[C@@H](CCCN=C(N)N)C(=O)N[C@@H](CCCN=C(N)N)C(=O)N[C@@H](CCCN=C(N)N)C(N)=O [ALRLAIRRR]
Escherichia coli JM109
  MIC: 1.33 µM (≈ 1.5 µg/mL)
Pseudomonas aeruginosa
  MIC: 2.67 µM (≈ 3 µg/mL)
[1]
  MIC: 1.78 µM (≈ 2 µg/mL)
Staphylococcus aureus
  MIC: > 42.7 µM

## CC[C@H](C)[C@H](NC(=O)[C@H](CC(=O)O)NC(=O)[C@H](CCCCN)NC(=O)[C@H](C)NC(=O)[C@H](C)NC(=O)CNC(=O)[C@H](CCCCN)NC(=O)[C@H](CC(C)C)NC(=O)[C@@H](NC(=O)[C@H](CC(=O)O)NC(=O)[C@@H](NC(=O)[C@@H](NC(=O)CN)C(C)C)C(C)C)[C@@H](C)CC)C(=O)N[C@@H](C)C(=O)N[C@@H](C)C(=O)N[C@@H](Cc1cnc[nH]1)C(=O)N[C@@H](CC(C)C)C(=O)N[C@@H](C)C(=O)N[C@@H](CO)C(=O)N[C@@H](CCCCN)C(=O)N[C@H](C(=O)N[C@@H](CCSC)C(=O)N[C@@H](CC(N)=O)C(=O)N[C@@H](CCCCN)C(=O)N[C@@H](CC(C)C)C(N)=O)C(C)C [GVVDILKGAAKDIAAHLASKVMNKL]
[2]
  MIC: 12.5 µM (≈ 32 µg/mL)
[3]
  MIC: 50 µM (≈ 128 µg/mL)
[4]
  MIC: 100 µM (≈ 256 µg/mL)
[5]
  MIC: > 100 µM
[6]
  MIC: ≥ 100 µM
[7]
  MIC: ≥ 100 µM

## CC[C@H](C)[C@H](NC(=O)[C@H](CC(=O)O)NC(=O)[C@H](CCCCN)NC(=O)[C@H](C)NC(=O)[C@H](C)NC(=O)CNC(=O)[C@H](CCCCN)NC(=O)[C@H](CC(C)C)NC(=O)[C@@H](NC(=O)[C@H](CC(=O)O)NC(=O)[C@@H](NC(=O)[C@@H](NC(=O)CN)C(C)C)C(C)C)[C@@H](C)CC)C(=O)N[C@@H](C)C(=O)NCC(=O)N[C@@H](Cc1cnc[nH]1)C(=O)N[C@@H](CC(C)C)C(=O)N[C@@H](C)C(=O)N[C@@H](CO)C(=O)N[C@@H](CCCCN)C(=O)N[C@H](C(=O)N[C@@H](C)C(=O)N[C@@H](CC(N)=O)C(=O)N[C@@H](CCCCN)C(=O)N[C@@H](CC(C)C)C(N)=O)C(C)C [GVVDILKGAAKDIAGHLASKVANKL]
[2]
  MIC: > 100 µM
[3]
  MIC: > 100 µM
[4]
  MIC: > 100 µM
[5]
  MIC: > 100 µM
[6]
  MIC: ≥ 100 µM
[7]
  MIC: ≥ 100 µM

## CC[C@H](C)[C@H](N)C(=O)N[C@@H](CCCCN)C(=O)N[C@@H](CC(C)C)C(=O)N[C@@H](CO)C(=O)N[C@@H](CCCCN)C(=O)N[C@@H](CCC(=O)O)C(=O)N[C@H](C(=O)N[C@@H](CCCCN)C(=O)N[C@@H](CCCCN)C(=O)N[C@@H](CC(N)=O)C(=O)N[C@@H](CC(C)C)C(=O)N[C@@H](CCCCN)C(=O)N[C@@H](CCCCN)C(=O)N[C@H](C(=O)N[C@@H](CC(C)C)C(=O)N[C@@H](CCCCN)C(=O)NCC(=O)N[C@@H](C)C(=O)N[C@H](C(=O)N[C@@H](CCCCN)C(=O)NCC(=O)N[C@@H](C)C(=O)N[C@H](C(=O)N[C@@H](C)C(=O)N[C@H](C(=O)N[C@@H](C)C(=O)N[C@@H](CCCCN)C(=O)N[C@@H](CCSC)C(=O)N[C@H](C(N)=O)C(C)C)C(C)C)[C@@H](C)CC)[C@@H](C)CC)C(C)C)[C@@H](C)O [IKLSKETKKNLKKVLKGAIKGAIAVAKMV]
Acinetobacter baumannii
  MIC: 3.1 µM (≈ 9.63 µg/mL)
[8]
  MIC: ≥ 50 µM
[9]
  MIC: 6.25 µM (≈ 19.4 µg/mL)
[3]
  MIC: 6.25 µM (≈ 19.4 µg/mL)
[10]
  MIC: ≥ 100 µM
[4]
  MIC: 12.5 µM (≈ 38.8 µg/mL)
[11]
  MIC: 3.1 µM (≈ 9.63 µg/mL)
[5]
  MIC: 6.25 µM (≈ 19.4 µg/mL)
[12]
  MIC: 1.6 µM (≈ 4.97 µg/mL)
[13]
  MIC: 1.6 µM (≈ 4.97 µg/mL)
[14]
  MIC: 3.1 µM (≈ 9.63 µg/mL)

## CC[C@H](C)[C@H](N)C(=O)N[C@@H](CC(C)C)C(=O)N1CCC[C@H]1C(=O)N[C@@H](CC(C)C)C(=O)N[C@@H](CCCCN)C(=O)N[C@@H](Cc1c[nH]c2ccccc12)C(=O)N1CCC[C@H]1C(=O)N[C@@H](Cc1c[nH]c2ccccc12)C(=O)N[C@@H](Cc1c[nH]c2ccccc12)C(=O)N1CCC[C@H]1C(=O)N[C@@H](Cc1c[nH]c2ccccc12)C(=O)N[C@@H](CCCN=C(N)N)C(=O)N[C@@H](CCCN=C(N)N)C(N)=O [ILPLKWPWWPWRR]
[15]
  MIC: 1.71 µM (≈ 3.13 µg/mL)
[16]
  MIC: 13.6 µM (≈ 25 µg/mL)
[17]
  MIC: 1.71 µM (≈ 3.13 µg/mL)

## CC[C@H](C)[C@H](N)C(=O)N[C@@H](CC(C)C)C(=O)N1CCC[C@H]1C(=O)N[C@@H](Cc1c[nH]c2ccccc12)C(=O)N[C@@H](CCCCN)C(=O)N[C@@H](Cc1c[nH]c2ccccc12)C(=O)N1CCC[C@H]1C(=O)N[C@@H](Cc1c[nH]c2ccccc12)C(=O)N[C@@H](CC(C)C)C(=O)N1CCC[C@H]1C(=O)N[C@@H](Cc1ccc(O)cc1)C(=O)N[C@@H](CCCN=C(N)N)C(=O)N[C@@H](CCCN=C(N)N)C(N)=O [ILPWKWPWLPYRR]
[15]
  MIC: 1.73 µM (≈ 3.13 µg/mL)
[16]
  MIC: 27.6 µM (≈ 50 µg/mL)
[17]
  MIC: 3.45 µM (≈ 6.25 µg/mL)

## CC[C@H](C)[C@H](N)C(=O)N[C@@H](CC(N)=O)C(=O)N[C@@H](CC(C)C)C(=O)N[C@@H](CCCCN)C(=O)N[C@@H](C)C(=O)N[C@H](C(=O)N[C@@H](C)C(=O)N[C@@H](C)C(=O)N[C@@H](CC(C)C)C(=O)N[C@H](C(=O)N[C@@H](CCCCN)C(=O)N[C@@H](CCCCN)C(=O)N[C@H](C(=O)O)C(C)C)C(C)C)[C@@H](C)CC [INLKAIAALVKKV]
[18]
  MIC: ≥ 41.5 µM
[19]
  MIC: 8.52 µM (≈ 11.8 µg/mL)
[3]
  MIC: 13.3 µM (≈ 18.4 µg/mL)
[20]
  MIC: 12.2 µM (≈ 16.8 µg/mL)
[21]
  MIC: 43.2 µM (≈ 59.7 µg/mL)
[22]
  MIC: 23.6 µM (≈ 32.6 µg/mL)

## NCCCC[C@H](NC(=O)[C@H](CCCN=C(N)N)NC(=O)[C@H](CCCCN)NC(=O)CNC(=O)[C@H](CCCCN)NC(=O)[C@H](CCCN=C(N)N)NC(=O)[C@@H](N)CCCCN)C(=O)O [KRKGKRK]
[23]
  MIC: ≥ 64 µM
Staphylococcus xylosus
  MIC: ≥ 64 µM

## CC[C@H](C)[C@H](NC(=O)[C@H](C)NC(=O)[C@H](CC(C)C)NC(=O)[C@H](CS)NC(=O)[C@H](CC(C)C)NC(=O)[C@H](C)NC(=O)[C@H](C)NC(=O)[C@H](CS)NC(=O)[C@@H](N)CC(C)C)C(=O)NCC(=O)N[C@@H](CCCN=C(N)N)C(=O)N[C@@H](CCCN=C(N)N)C(N)=O [LCAALCLAIGRR]
Escherichia coli JM109
  MIC: 19.1 µM (≈ 24 µg/mL)
[1]
  MIC: 4.76 µM (≈ 6 µg/mL)
Staphylococcus aureus
  MIC: 38.1 µM (≈ 48 µg/mL)

## NCCCC[C@H](NC(=O)[C@H](CCCCN)NC(=O)[C@H](CCCN=C(N)N)NC(=O)[C@H](CCCN=C(N)N)NC(=O)[C@H](Cc1ccc(O)cc1)NC(=O)[C@H](Cc1ccc(O)cc1)NC(=O)[C@H](CCCCN)NC(=O)[C@H](CCCN=C(N)N)NC(=O)CNC(=O)[C@@H](N)CCCN=C(N)N)C(=O)O [RGRKYYRRKK]
[24]
  MIC: ≥ 100 µM

## CC(C)[C@H](NC(=O)[C@H](Cc1c[nH]c2ccccc12)NC(=O)[C@H](CCCCN)NC(=O)[C@@H](N)CCCN=C(N)N)C(=O)N[C@@H](Cc1c[nH]c2ccccc12)C(=O)N[C@@H](Cc1c[nH]c2ccccc12)C(=O)N[C@@H](CCCN=C(N)N)C(=O)N[C@@H](CC(N)=O)C(=O)N[C@@H](CCCN=C(N)N)C(N)=O [RKWVWWRNR]
[24]
  MIC: ≥ 100 µM
[2]
  MIC: 90.1 µM (≈ 125 µg/mL)
[5]
  MIC: 11.5 µM (≈ 16 µg/mL)
[25]
  MIC: 5.77 µM (≈ 7.99 µg/mL)

## CC[C@H](C)[C@H](NC(=O)[C@H](CC(C)C)NC(=O)[C@@H]1CCCN1C(=O)[C@H](Cc1c[nH]c2ccccc12)NC(=O)[C@H](CCCCN)NC(=O)[C@H](Cc1c[nH]c2ccccc12)NC(=O)[C@@H]1CCCN1C(=O)[C@H](Cc1c[nH]c2ccccc12)NC(=O)[C@H](Cc1c[nH]c2ccccc12)NC(=O)[C@@H]1CCCN1C(=O)[C@H](Cc1c[nH]c2ccccc12)NC(=O)[C@H](CCCN=C(N)N)NC(=O)[C@@H](N)CCCN=C(N)N)C(N)=O [RRWPWWPWKWPLI]
[15]
  MIC: 0.818 µM (≈ 1.56 µg/mL)
[16]
  MIC: 6.55 µM (≈ 12.5 µg/mL)
[26]
  MIC: 0.4 µM (≈ 0.763 µg/mL)
[17]
  MIC: 0.818 µM (≈ 1.56 µg/mL)
